# Reference: patent US20150329582A1, “SMALL MOLECULE COMPOUNDS SELECTIVE AGAINST GRAM-NEGATIVE BACTERIAL INFECTIONS” (priority 2014, published 2015)
# Experiments:
# Staphyloccus aureus = assay: Minimal Inhibitory Concentration (MIC) test; assay type: cell-based; conditions: Gram positive
# Bacillus subtillis = assay: Minimal Inhibitory Concentration (MIC) test; assay type: cell-based; conditions: Gram positive
# [1] = system: Gram-negative bacterial pathogens (Burkholderia cenocepacia J2315, Burkholderia cenocepacia, Pseudomonas aeruginosa PAO1, Acinetobacter baumannii BAA-1793 and …); assay: Minimal Inhibitory Concentration (MIC) test; assay type: cell-based
# Method: Minimal Inhibitory Concentration (MIC) Test
# The MIC test was performed by adding 2.0 mL of an antibiotic solution (100 ug/mL) to the first tube (out of, e.g., 9 tubes). 1.0 mL of sterile broth was added to all other tubes. 1.0 mL was transferred from the first tube to the second tube. Using a separate pipette, the contents of this tube were mixed and 1.0 mL was transferred to the third tube. Dilutions were continued in this manner through tube number 8. 1.0 mL was removed from tube 8 and discarded. […] Colonies of the culture were suspended to an appropriate turbidity to be tested in 5.0 mL of Mueller-Hinton broth to give a slightly turbid suspension. This suspension was diluted by aseptically pipetting 0.2 mL of the suspension into 40 mL of Mueller-Hinton broth. 1.0 mL of the diluted culture suspension was added to each of the tubes. The final concentration of the antibiotic was one-half of the original concentration in each tube. All tubes were incubated at 35° C. overnight. […]
# Antibiotic activity, measured as MIC in μg/mL, of natural Mangrolide A and a synthetic Mangrolide A O-methyl ether derivative were compared against the following Gram-negative microbial pathogens: Burkholderia cenocepacia J2315, Burkholderia cenocepacia, Pseudomonas aeruginosa PAO1, Acinetobacter Baumannii BAA-1793, Acinetobacter baumannii BAA-1605, Escherichia coli (EHEC), and Klebsiella pneumoniae.
# [2] = system: S-30 extract from E. coli (30S ribosomal extract); assay: Error frequency in vitro protein synthesis assay (amino acid misincorporation); assay type: biochemical; conditions: increasing concentrations (μM) of Mangrolide A, 14C-phenylalanine / 3H-leucine incorporation
# Method: Error Frequency In Vitro Protein Synthesis Assay Using Natural mRNA
# 72 mM Tris-hydrochloride pH 7.5, 72 mM NH4Cl, 12 mM magnesium acetate, 2.4 mM dithiothreitol (Sigma Co.), 2 mM adenosine triphosphate (ATP), 0.1 mM guanosine triphosphate (GTP), 5 mM phosphoenolpyruvate (Sigma Co.), 20 ug of pyruvate kinase (Sigma Co.) per mL, a mixture of 19 amino acids (each at 72 uM), 13 uM [^14C]leucine (50 counts/min per picomole), 50 ug of calcium folinate (S.P.E.C.I.A., Paris, France) per mL, 0.2 mM DFP, and 0.6 mM Mg Titriplex in a final volume of 0.125 mL per tube. mRNA (1300 μg), an S-30 extract from E. coli (200 μg), or ribosomes plus S-150 (200 μg) and crude initiation factors were added. Incubations were for 30 minutes at 37° C. The extent of amino acid incorporation was determined by measuring the radioactivity remaining insoluble after treatment with hot trichloroacetic acid (90° C. for 15 min). To reduce endogenous mRNA, ribosomes plus 5-150 or S-30 extracts were preincubated just prior to use at 37° C. for 15 min in the reaction mixture described above without [^14C]leucine, the energy generating system and added mRNA.
# Assay for Polyuridylic Acid [Poly(U)]-Directed-Polyphenylalanine Synthesis. […]
# [3] = system: 30S rRNA ribosomal mutant, A1408G; assay: Error frequency assay with 30S rRNA ribosomal mutant; assay type: biochemical; conditions: increasing concentrations of Mangrolide A
# Method: (§1) The error frequency assay was conducted to determine whether a 30S rRNA ribosomal mutant, A1408G is susceptible to Mangrolide A. The mutation site is shown in FIG. 8A. […] (FIG. 8B) When wild type or A1408G (S30) mutant bacteria were grown in wells of a microwell plate containing no additions (No—negative control), Ampicillin or Tetracyclin in the presence or absence of Mangrolide A, A1408G (S30) mutants proliferated similarly to the proliferation of wild type bacteria grown in the absence of Mangrolide A. (FIG. 8C).
# [4] = system: A1408G (S30) mutant bacteria; assay: Growth of wild type or A1408G (S30) mutant bacteria in the presence of Mangrolide A; assay type: cell-based; conditions: grown with or without Mangrolide A, compared with wild type
# Method: as §1
# [5] = system: E. coli expressing neomycin phosphotransferase-1 (NPT); assay: Poly(U)-directed polyphenylalanine synthesis, with or without neomycin phosphotransferase-1; assay type: cell-based; conditions: for antibiotic activity against E. coli expressing NPT: E. coli transformed with resistance plasmid expressing neomycin phosphotransferase-1
# Method: Assay for Polyuridylic Acid [Poly(U)]-Directed-Polyphenylalanine Synthesis.
# The reaction mixture contained 400 ug of E. coli B transfer RNA (General Biochemicals, Chagrin Falls, Ohio) per mL, 5 mM spermidine, and [^14C]leucine was replaced with 13 μM [^14C]phenylalanine ([…]). A poly(UUU) RNA template [5′-[…](UUU)12UAAGCAGG-3′ (SEQ ID NO: 1) was used at a concentration of 100 ug per assay. (Legault-Demare and Chambliss, Journal of Bacteriology, 1974, 120(3): 1300-1307).
# The assay for polyuridylic acid [poly(U)]-directed-polyphenylalanine synthesis was conducted in the presence or absence of neomycin phosphotransferase-1 (NPT). Wild type E. coli and E. coli transformed with a resistance plasmid expressing neomycin phosphotransferase-1 (NPT) were treated with Mangrolide A and translational error frequency determined.
smiles,measurement,setting,value
"CC[C@H]1/C=C(\C)[C@@H](O)C/C=C/C=C(\CO)C(=O)O[C@H](C(C)C)C/C=C(C)/C=C(\C)[C@@H]1O[C@@H]1O[C@H](C)[C@@H](O[C@@H]2O[C@H](C)[C@@H](OC)[C@H](O)[C@H]2OC)[C@H](N(C)C)[C@H]1O [Mangrolide A, mangrolide A]",MIC,Staphyloccus aureus,32 µg/mL
same,MIC,Bacillus subtillis,> 32 µg/mL
same,antibiotic potency compared with the Mangrolide A O-methyl ether derivative,[1]; all Gram-negative bacteria tested,more potent antibiotic against all Gram-negative bacteria tested
same,MIC range,[1]; range over the Gram-negative bacterial pathogens tested,0.25 to 1 µg/mL
same,misincorporation of amino acids during protein synthesis,[2],increased misincorporation of amino acids
same,misincorporation of amino acids during protein synthesis,[2]; listed as mangrolide,induces misincorporation of amino acids
same,misincorporation of amino acids with A1408G mutant,[3],limited misincorporation was induced
same,susceptibility of A1408G mutant bacteria (growth),[4],A1408G mutant is resistant
same,susceptibility of A1408G mutant bacteria (growth),[4]; listed as mangrolide,"A1408G mutant strain was able to grow on plates with mangrolide, unlike the wildtype"
same,antibiotic activity against E. coli expressing NPT,[5],inactivated by the expressed neomycin phosphotransferase-1 activity
same,antibiotic activity against E. coli expressing NPT,[5]; listed as mangrolide,inactivated by neomycin phosphotransferase-1
same,translational error frequency in E. coli expressing NPT,[5]; grown in the presence of Mangrolide A,error frequency comparable to wild type E. coli
